Counter-ions that a name gives are not always drawn. Like-named read-outs stand apart in the source and are kept apart here.
Columns and labels:
[1] = tested on: toxic extensor seizure (maximal electroshock test); assay: Mouse anticonvulsant model, maximal electroshock test (MES); type: in vivo; conditions: for MES ED50 (Active @ 30): active at dose 30; for MES ED50 (Active @ 100): active at dose 100; for ED50: ip
Procedure: Procedure for Testing in Mouse Anticonvulsant Model
The compounds of Formula (I) and Formula (II) are useful as anticonvulsant agents. The anticonvulsant activity of the subject compounds was determined using a standard “maximal electroshock test” (MES). In this test, activity is indicated by a block of the toxic extensor seizure, as described by Swinyard, et al., in J. PharmacoL Exptl. Therap., 106, 319 (1952). A more recent description of current anticonvulsant drug screening is given in Swinyard, et al., in Epilepsia, 19, 409 (1978).
The anticonvulsant activity of compounds of this invention tested according to the Swinyard (1952) method are shown in Table 3, having values for the Mouse MES Model in ED50 per dose (in mg/kg, i.p.).

[2] = tested on: mechanical allodynia (paw withdrawal threshold); assay: Neuropathic pain model (Chung Model), spinal nerve ligation, mechanical allodynia with von Frey hairs; type: in vivo, Sprague-Dawley rats; conditions: for inhibition in vivo at 30 mg/kg: read-out: % MPE
Procedure: Procedure for Testing in a Neuropathic Pain Model
The compounds of the present invention are useful in the treatment of neuropathic pain. The use of the compounds in treating neuropathic pain was determined using an animal model. This model was developed and first described by S. H. Chung and J. M. Chung, An Experimental Model for Peripheral Neuropathy Produced by Segmental Spinal Nerve Ligation in the Rat, Pain, 1992, 50, 355-363 (referred to hereinafter as the “Chung Model”).
Male Sprague-Dawley rats, weighing approximately 200 g each were anesthetized with isoflurane. The spinal nerve at the level of L5 was exposed through an incision just left of the dorsal midline and tightly ligated with 6-0 silk. At various times after surgery, animals were tested for mechanical allodynia with von Frey hairs (monofilaments which are calibrated to bend under a certain amount of pressure, ranging from 0.41 to 15.1 g). In order to calculate a paw withdrawal threshold (PWT), tactile allodynia was measured by recording the pressure at which the affected paw was withdrawn from graded stimuli according to the procedure of S. R. Chaplan, J. W. Pogrel, T. L. Yaksh, Role of Voltage-Dependent Calcium Channel Subtypes in Experimental Tactile Allodynia, J. Pharmacol. Exp. Ther. 1994, 269,1117-1123. Normal rats can withstand at least 15 g of pressure without responding. Operated rats, however, can respond to as little as 0.25 g of pressure. The surgery was deemed successful if the animal responded with a PWT of less than 4 g of pressure applied to the affected paw.
The sham operation consisted of a similar surgery; the spinal nerve was visualized without being ligated. […] The results of the assay were expressed as percent of the maximum possible effect (% MPE), calculated as the PWT at the time of testing minus the baseline PWT divided by the maximum PWT (15 g) minus the baseline PWT times 100.
The compounds having Formula (I) and Formula (II) were tested for activity against neuropathic pain by being dissolved or suspended in either water or hydroxypropyl methylcellulose, respectively. Postoperative animals between 14 to 42 days were fasted overnight prior to dosing. Animals were orally dosed and dosage volumes were calculated on a 4 mL/kg basis. The screening dose employed was 30 mg/kg.

[3] = Chung Model rat, antiallodynic activity, oral screening dose 30 mg/kg

Structure (SMILES)	melting point	inhibition in vivo at 30 mg/kg [2, 3]	further results
CCN(CC)CC(=O)c1cc(C(=O)c2cccc3ccccc23)cn1C (as salt: HCl) [Cpd 3, 1-[4-(1-Naphthalenoyl)-1-methyl-1H-pyrrol-2-yl]-2-(N,N-diethylamino)ethanone]	222 to 224 °C	–	–
Cn1cc(C(=O)c2cccc3ccccc23)cc1C(=O)CN1CCCCC1 (as salt: HCl) [Cpd 4, 1-[4-(1-Naphthalenoyl)-1-methyl-1H-pyrrol-2-yl]-2-(1-piperidinyl)ethanone]	246 to 248 °C	–	–
CCN(CC)CC(=O)c1cc(C(=O)c2cccnc2)n(C)c1 (as salt: HCl) [Cpd 12, 1-[5-(3-Pyridinoyl)-1-methyl-1H-pyrrol-3-yl]-2-(N,N-diethylamino)ethanone]	158 to 160 °C (dec.)	–	–
Cn1cc(C(=O)CCN2CCCCC2)cc1C(=O)c1cccc2ccccc12 [Cpd 8, 1-[5-(1-Naphthalenoyl)-1-methyl-1H-pyrrol-3-yl]-3-(1-piperidinyl)-1-propanone]	–	–	MES ED50 (Active @ 30) ([1]; i.p.): Active @ 30; inhibition in vivo at 30 mg/kg ([2]; Rattus norvegicus, po): 25%
CCN(CC)CC(=O)c1cc(C(=O)c2cccnc2)n(C)c1 [Cpd 12, 1-[5-(3-Pyridinoyl)-1-methyl-1H-pyrrol-3-yl]-2-(N,N-diethylamino)ethanone]	–	4%	MES ED50 (Active @ 100) ([1]; i.p.): Active @ 100
CCN(CC)CC(=O)c1cc(C(=O)c2cccs2)cn1C [Cpd 2, 1-[4-(2-Thienoyl)-1-methyl-1H-pyrrol-2-yl]-2-(N,N-diethylamino)ethanone]	–	14%	MES ED50 (Active @ 30) ([1]; i.p.): Active @ 30
Cn1cc(C(=O)c2ccc3ccccc3c2)cc1C(=O)CN1CCCCC1 (as salt: HCl) [Cpd 17, 1-[4-(2-Naphthalenoyl)-1-methyl-1H-pyrrol-2-yl]-2-(1-piperidinyl)ethanone]	246 to 248 °C	–	–
CCN(CC)CC(=O)c1cc(C(=O)c2cccs2)cn1C (as salt: HCl) [Cpd 2, 1-[4-(2-Thienoyl)-1-methyl-1H-pyrrol-2-yl]-2-(N,N-diethylamino)ethanone]	196 to 198 °C	–	–
CCN(CC)CC(=O)c1cc(-c2ccc(Cl)s2)n(C)c1 [Cpd 6, 1-[5-(5-Chlorothieno-2-yl)-1-methyl-1H-pyrrol-3-yl]-2-(N,N-diethylamino)ethanone]	–	–	MES ED50 (Active @ 30) ([1]; i.p.): Active @ 30; % MPE [2, 3]: 54 % MPE
CCN(CC)CC(=O)c1cc(C(=O)c2ccc3ccccc3c2)cn1C [Cpd 1, 1-[4-(2-Naphthalenoyl)-1-methyl-1H-pyrrol-2-yl]-2-(N,N-diethylamino)ethanone]	–	80%	ED50 [1]: 11 mg/kg
CCN(CC)CC(=O)c1cc(C(=O)c2cccs2)n(C)c1 [Cpd 10, 1-[5-(2-Thienoyl)-1-methyl-1H-pyrrol-3-yl]-2-(N,N-diethylamino)ethanone]	–	0%	MES ED50 (Active @ 100) ([1]; i.p.): Active @ 100
CCC(N(C)C)n1cc(C(=O)CN2CCCCC2)cc1C(=O)c1ccc(Cl)cc1 (stereo not shown) (as salt: HCl) [Cpd 14, 1-[5-(4-Chlorobenzoyl)-1-(N,N-dimethylaminoprop-3-yl) -1H-pyrrol-3-yl]-2-(1-piperidinyl)ethanone]	138 to 141 °C	–	–
CC(N(C)C)n1cc(C(=O)c2ccc3ccccc3c2)cc1C(=O)CN1CCCCC1 (stereo not shown) (as salt: HCl) [Cpd 5, 1-[4-(2-Naphthalenoyl)-1-(N,N-dimethylaminoeth-2-yl)-1H-pyrrol-2-yl]-2-(1-piperidinyl)ethanone]	239 to 242 °C	–	–
CCSCn1cc(C(=O)CN(CC)CC)cc1C(=O)c1ccccc1Cl (as salt: HCl) [Cpd 16, 1-[5-(2-Chlorobenzoyl)-1-ethylthiomethyl-1H-pyrrol-3-yl]-2-(N,N-diethylamino)ethanone]	157 to 158 °C	–	–
CCN(CC)CC(=O)c1cc(C(=O)c2cccc3ccccc23)cn1C [Cpd 3, 1-[4-(1-Naphthalenoyl)-1-methyl-1H-pyrrol-2-yl]-2-(N,N-diethylamino)ethanone]	–	–	MES ED50 (Active @ 30) ([1]; i.p.): Active @ 30; inhibition in vivo at 30 mg/kg ([2]; Rattus norvegicus, po): 87%
CCN(CC)CC(=O)c1cc(C(=O)c2ccc3ccccc3c2)cn1C (as salt: fumarate) [Cpd 1, 1-[4-(2-Naphthalenoyl)-1-methyl-1H-pyrrol-2-yl]-2-(N,N-diethylamino)ethanone]	130 to 132 °C	–	–
CCN(CC)CC(=O)c1cc(C(=O)c2cccs2)n(C)c1 (as salt: salt) [Cpd 10, 1-[5-(2-Thienoyl)-1-methyl-1H-pyrrol-3-yl]-2-(N,N-diethylamino)ethanone]	153 to 155 °C	–	–
CCN(CC)CC(=O)c1cc(C(=O)c2ccc3ccccc3c2)n(C)c1 [Cpd 13, 1-[5-(2-Naphthalenoyl)-1-methyl-1H-pyrrol-3-yl]-2-(N,N-diethylamino)ethanone]	–	80%	MES ED50 (Active @ 300) ([1]; i.p., active at dose 300): Active @ 300
Cn1cc(C(=O)CCN2CCCCC2)cc1C(=O)c1cccc2ccccc12 (as salt: HCl) [Cpd 8, 1-[5-(1-Naphthalenoyl)-1-methyl-1H-pyrrol-3-yl]-3-(1-piperidinyl)-1-propanone]	141 to 143 °C	–	–
CN1CCN(CC(=O)c2cc(C(=O)c3ccc(Cl)cc3)n(C)c2)CC1 [Cpd 7, 1-[5-(4-Chlorobenzoyl)-1-methyl-1H-pyrrol-3-yl]-2-(4-methyl-1-piperazinyl)ethanone]	–	21%	ED50 [1]: 16.6 mg/kg
CCCOn1cc(C(=O)CN(CC)CC)cc1C(=O)c1ccc(Cl)cc1 (as salt: HCl) [Cpd 9, 1-[5-(4-Chlorobenzoyl)-1-ethylmethoxy-1H-pyrrol-3-yl]2-[N,N-diethylamino]ethanone]	149 to 151 °C	–	–
CCCOn1cc(C(=O)CN(CC)CC)cc1C(=O)c1ccc(Cl)cc1 [Cpd 9, 1-[5-(4-Chlorobenzoyl)-1-ethylmethoxy-1H-pyrrol-3-yl]2-[N,N-diethylamino]ethanone]	–	5%	MES ED50 (Active @ 100) ([1]; i.p.): Active @ 100
Cn1cc(C(=O)c2cccc3ccccc23)cc1C(=O)CN1CCCCC1 [Cpd 4, 1-[4-(1-Naphthalenoyl)-1-methyl-1H-pyrrol-2-yl]-2-(1-piperidinyl)ethanone]	–	–	MES ED50 (Active @ 30) ([1]; i.p.): Active @ 30; inhibition in vivo at 30 mg/kg ([2]; Rattus norvegicus, po): 12%
Cn1cc(C(=O)CN2CCCCC2)cc1C(=O)c1cccs1 [Cpd 11, 1-[5-(2-Thienoyl)-1-methyl-1H-pyrrol-3-yl]-2-(1-piperidinyl)ethanone]	178 to 179 °C	34%	MES ED50 (Active @ 30) ([1]; i.p.): Active @ 30
CCN(C)CC(=O)c1cc(C(=O)c2ccc3ccccc3c2)n(C)c1 [Cpd 15, 1-[5-(2-Naphthalenoyl)-1-methyl-1H-pyrrol-3-yl]-2-(N,N-ethylmethylamine)ethanone]	–	–	MES ED50 (Active @ 30) ([1]; i.p.): Active @ 30; % MPE [2, 3]: 40 % MPE
CCN(CC)CC(=O)c1cc(C(=O)c2ccc3ccccc3c2)n(C)c1 (as salt: HCl) [Cpd 13, 1-[5-(2-Naphthalenoyl)-1-methyl-1H-pyrrol-3-yl]-2-(N,N-diethylamino)ethanone]	195 to 196 °C	–	–

Source: patent publication US6573267B2, “Useful aroyl aminoacyl pyrrole compounds” (Ortho-McNeil Pharmaceutical, Inc., priority 2000, dated 2003)
